Measured values reported in paper PMC8157854, “Radiosynthesis and Evaluation of Talazoparib and Its Derivatives as PARP-1-Targeting Agents” (Biomedicines, 2021).

Key:
intratumoral PAR = system: intratumoral PAR; set-up: method as in PMID 26652717; details: at 2 and 8 h time points, partial recovery at 24 h; cited from earlier work
P-glycoprotein (P-gp) = system: P-glycoprotein (P-gp); set-up: method as in PMID 31770456; details: cited from earlier work
PARP-1 = PARP-1 (Homo sapiens, UniProt P09874); test: Competitive binding assay with [3H]WC-DZ in U251MG cells; details: for pseudoHill coefficient n′H: competitive binding vs [3H]WC-DZ in U251MG cells, Mean ± SEM, n = 3
Sequence of PARP-1 (P09874 whole entry): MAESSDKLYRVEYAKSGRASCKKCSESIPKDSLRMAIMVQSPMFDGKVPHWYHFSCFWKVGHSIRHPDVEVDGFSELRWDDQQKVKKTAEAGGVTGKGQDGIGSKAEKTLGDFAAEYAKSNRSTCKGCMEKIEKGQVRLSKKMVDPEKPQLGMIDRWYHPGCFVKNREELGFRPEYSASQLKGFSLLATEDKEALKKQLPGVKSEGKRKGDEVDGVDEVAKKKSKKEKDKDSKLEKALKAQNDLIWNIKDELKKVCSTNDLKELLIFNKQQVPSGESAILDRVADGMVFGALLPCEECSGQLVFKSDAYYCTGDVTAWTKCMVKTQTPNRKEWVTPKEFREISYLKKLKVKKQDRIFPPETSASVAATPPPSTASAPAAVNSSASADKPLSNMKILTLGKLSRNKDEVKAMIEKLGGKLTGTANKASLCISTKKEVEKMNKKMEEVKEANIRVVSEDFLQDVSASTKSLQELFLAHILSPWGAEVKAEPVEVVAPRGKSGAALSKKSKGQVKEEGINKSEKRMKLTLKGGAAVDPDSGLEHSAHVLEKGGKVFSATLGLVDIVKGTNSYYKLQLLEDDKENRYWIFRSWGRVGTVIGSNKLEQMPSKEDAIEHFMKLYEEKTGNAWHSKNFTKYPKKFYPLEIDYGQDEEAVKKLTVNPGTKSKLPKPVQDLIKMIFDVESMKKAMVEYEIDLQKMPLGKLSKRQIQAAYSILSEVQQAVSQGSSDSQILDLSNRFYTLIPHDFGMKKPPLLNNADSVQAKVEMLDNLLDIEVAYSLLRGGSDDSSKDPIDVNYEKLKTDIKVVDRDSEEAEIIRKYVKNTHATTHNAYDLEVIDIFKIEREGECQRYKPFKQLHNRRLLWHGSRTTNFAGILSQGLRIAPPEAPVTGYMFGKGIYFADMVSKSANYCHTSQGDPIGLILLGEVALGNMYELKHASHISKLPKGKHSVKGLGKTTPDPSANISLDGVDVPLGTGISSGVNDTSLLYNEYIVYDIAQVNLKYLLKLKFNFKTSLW
Source text: After the reaction was completed, the cells were washed once with ice-cold PBS and the bound radioactivity was counted and analyzed as described above.
Competitive dissociation constants (Ki values) were derived from the Cheng and Prussoff equation [24]: Ki=IC50/1+Lt/Kd
Data from competitive binding were transformed to determine the pseudo-Hill coefficient, n′H, using the following equation: logBs/B0−Bs=n^′HlogI−n^′HlogIC50, in which the negative of the Hill slope, n′H, can be readily calculated by a linear regression of plotting logBs/B0−Bs vs. logI , as we published [22, 25].

PC-3 prostate tumors = test: Biodistribution of [18F]talazoparib in PC-3 tumor-bearing SCID mice; assay type: in vivo; details: for tumor uptake: PC-3 tumor
Source text: 2.5. Xenograft Model The animal studies were approved by Washington University’s Institutional Animal Care and Use Committee (IACUC), Protocol #20-0214 approved 7 August 2020. The overall animal care was following The Guide for the Care and Use of Laboratory Animals from the National Research Council and the USDA Animal Care Resource Guide. Mature SCID mice from Charles River Laboratories were allowed to acclimate in an AALAC accredited housing facility for at least 1 week before tumor implantation for the biodistribution study. Male SCID mice (4 weeks old, n = 4/group, 2 groups), with 1 × 10^7 PC-3 prostate cancer cells implanted subcutaneously in the right shoulder grew for about 35 days before the radiotracer biodistribution studies. 2.6. Biodistribution Animals were intravenously injected with [^18F]talazoparib (120 µCi) in 10% ethanol/saline (100 µL) via the tail vein. At the specified time point (4 and 8 h), the mice were sacrificed, the blood, lungs, liver, spleen, kidneys, muscle, fat, heart, brain, bone, bone marrow, prostate, pancreas, and tumor were harvested, weighed, and counted in a γ-counter. The percentage injected dose per gram of tissue (%ID/g) was determined by decay correction of the [^18F]talazoparib for each sample and then normalized by the standard injected radiotracer dose and the sample weight.

Compound: Cn1ncnc1[C@H]1c2n[nH]c(=O)c3cc(F)cc(c23)N[C@@H]1c1ccc(F)cc1 [3a″, (8S,9R)-5-Fluoro-8-(4-fluorophenyl)-9-(1-methyl-1H-1,2,4-triazol-5-yl)-2,7,8,9-tetrahydro-3H-pyrido[4,3,2-de]phthalazin-3-one]
- intratumoral PAR concentration (intratumoral PAR): significantly attenuated
- P-glycoprotein substrate (P-glycoprotein (P-gp)): substrate of P-glycoprotein (P-gp)

Compound: Cn1ncnc1C1c2n[nH]c(=O)c3cc(F)cc(c23)NC1c1ccc(I)cc1 (centres unmarked) [Compound 3c, 8-(4-iodophenyl)-5-fluoro-9-(1-methyl-1H-1,2,4-triazol-5-yl)-2,7,8,9-tetrahydro-3H-pyrido[4,3,2-de]phthalazin-3-one]
- Ki (PARP-1): 1.73 ± 0.43 nM
- pseudoHill coefficient n′H (PARP-1): 1.01 ± 0.20

Compound: Cn1ncnc1C1c2n[nH]c(=O)c3cc(F)cc(c23)NC1c1ccc(Br)cc1 (centres unmarked) [Compound 3b, 8-(4-bromophenyl)-5-fluoro-9-(1-methyl-1H-1,2,4-triazol-5-yl)-2,7,8,9-tetrahydro-3H-pyrido[4,3,2-de]phthalazin-3-one]
- Ki (PARP-1): 1.92 ± 0.41 nM
- pseudoHill coefficient n′H (PARP-1): 1.24 ± 0.24

Compound: Cn1ncnc1[C@H]1c2n[nH]c(=O)c3cc(F)cc(c23)N[C@@H]1c1ccc([18F])cc1 [[^18F]talazoparib]
- tumor uptake (PC-3 prostate tumors; 4 h post-injection, i.v., SCID mice): 3.78 ± 0.55 %ID/gram
- tumor uptake (PC-3 prostate tumors; 8 h post-injection, i.v., SCID mice): 4.52 ± 0.32 %ID/gram
- uptake in liver, spleen, kidney, and pancreas (PC-3 prostate tumors; after 4 h, only slightly reduced at 8 h): High uptake
- uptake in bone marrow (PC-3 prostate tumors; at 4 and 8 h): high
- time for clearance of radioactivity from the blood (PC-3 prostate tumors; blood, i.v., SCID mice): ≤ 4 h
- brain uptake (PC-3 prostate tumors; brain, 4 h post-injection, i.v., SCID mice): 0.05 ± 0.01 %ID/gram

Compound: CCN1CCC[C@H]1CNC(=O)c1c(O)c(Cl)cc(Cl)c1OC [Raclopride, reference compound]
- Ki (PARP-1): > 20000 nM
- displacement of [3H]WC-DZ (PARP-1; U251MG cells, 0.1 nM to 1 µM): No apparent displacement
